{"source": "ChEMBL document CHEMBL4229359", "about": "“Simple 2(5H)-furanone derivatives with selective cytotoxicity towards non-small cell lung cancer cell line A549 - Synthesis, structure-activity relationship and biological evaluation” (Eur J Med Chem, 2018)", "key": {"[1]": {"system": "A549", "assay": "Induction of apoptosis in human A549 cells assessed as late apoptotic cells at 20 uM after 72 hrs by Annexin V-FITC/propidium iodide staining based flow cytometry (reference value: 0.5%)", "type": "functional"}, "[2]": {"system": "A549", "assay": "Effect on Bad protein expression in human A549 cells at 20 uM after 72 hrs by densitometric analysis", "type": "functional, cell-based"}, "[3]": {"system": "A549", "assay": "Anticlonogenic activity against human A549 cells assessed as colony formation at 10 uM after 72 hrs by crystal violet staining based microscopic method relative to control", "type": "functional"}, "[4]": {"system": "A549", "assay": "Synergistic anticlonogenic activity against human A549 cells at 10 uM after 72 hrs in presence of 10 uM erlotinib by crystal violet staining based microscopic method", "type": "functional"}, "[5]": {"system": "HepG2", "assay": "Cytotoxicity against human HepG2 cells assessed as reduction in cell viability after 72 hrs by MTT assay", "type": "functional, cell-based", "conditions": "HepG2, 72 h"}, "[6]": {"system": "A549", "assay": "Effect on Pro-caspase-3 protein expression in human A549 cells at 20 uM after 72 hrs by densitometric analysis", "type": "functional, cell-based"}, "[7]": {"system": "A549", "assay": "Downregulation of Cyclin-B1 protein expression in human A549 cells at 10 uM after 72 hrs by Western blot analysis", "type": "functional, cell-based"}, "[8]": {"system": "A549", "assay": "Effect on Bax protein expression in human A549 cells at 20 uM after 72 hrs by densitometric analysis", "type": "functional, cell-based"}, "[9]": {"system": "A549", "assay": "Effect on Bcl2 protein expression in human A549 cells at 20 uM after 72 hrs by densitometric analysis", "type": "functional, cell-based"}, "[10]": {"system": "A549", "assay": "Induction of apoptosis in human A549 cells assessed as caspase-3 cleavage at 20 uM after 72 hrs by Western blot analysis", "type": "functional, cell-based"}, "[11]": {"system": "A549", "assay": "Cell cycle arrest in human A549 cells assessed as accumulation at G2/M-phase at 10 uM after 24 hrs by propidium iodide staining based flow cytometry (reference value: 6.5%)", "type": "functional"}, "[12]": {"system": "PC-3", "assay": "Cytotoxicity against human PC3 cells assessed as reduction in cell viability after 72 hrs by MTT assay", "type": "functional, cell-based", "conditions": "PC-3, 72 h"}, "[13]": {"system": "A549", "assay": "Cell cycle arrest in human A549 cells assessed as accumulation at S-phase at 20 uM after 72 hrs by propidium iodide staining based flow cytometry (reference value: 31.9%)", "type": "functional"}, "[14]": {"system": "Hep 3B2", "assay": "Cytotoxicity against human Hep3B cells assessed as reduction in cell viability after 72 hrs by MTT assay", "type": "functional, cell-based"}, "[15]": {"assay": "Selectivity index, ratio of IC50 for human BEAS2B cells to IC50 for human A549 cells", "type": "toxicity"}, "[16]": {"system": "A549", "assay": "Cell cycle arrest in human A549 cells assessed as accumulation at S-phase at 10 uM after 72 hrs by propidium iodide staining based flow cytometry (reference value: 16.8 to 18.5%)", "type": "functional"}, "[17]": {"system": "A549", "assay": "Anticlonogenic activity against human A549 cells at 10 uM after 72 hrs by crystal violet staining based microscopic method relative to control", "type": "functional"}, "[18]": {"system": "HCT-116", "assay": "Cytotoxicity against p53-/- human HCT116 cells assessed as reduction in cell viability after 72 hrs by MTT assay", "type": "functional, cell-based", "conditions": "HCT-116, 72 h"}, "[19]": {"system": "A549", "assay": "Synergistic cytotoxicity against human A549 cells assessed as reduction in cell viability at 10 uM after 72 hrs in presence of 5 to 20 uM erlotinib by MTT assay", "type": "functional, cell-based"}, "[20]": {"system": "A549", "assay": "Cytotoxicity against human A549 cells assessed as reduction in cell viability after 72 hrs by MTT assay", "type": "functional, cell-based", "conditions": "A549, 72 h"}, "[21]": {"system": "SJSA-1", "assay": "Cytotoxicity against human SJSA1 cells assessed as reduction in cell viability after 72 hrs by MTT assay", "type": "functional, cell-based", "conditions": "SJSA-1, 72 h"}, "[22]": {"system": "A549", "assay": "Cell cycle arrest in human A549 cells assessed as accumulation at G1-phase at 10 uM after 72 hrs by propidium iodide staining based flow cytometry (reference value: 75.2 to 76%)", "type": "functional"}, "[23]": {"system": "LoVo", "assay": "Cytotoxicity against human LoVo cells assessed as reduction in cell viability after 72 hrs by MTT assay", "type": "functional, cell-based"}, "[24]": {"system": "MCF7", "assay": "Cytotoxicity against human MCF7 cells assessed as reduction in cell viability after 72 hrs by MTT assay", "type": "functional, cell-based", "conditions": "MCF7, 72 h"}, "[25]": {"system": "A549", "assay": "Induction of apoptosis in human A549 cells at 20 uM after 72 hrs by Annexin V-FITC/propidium iodide staining based flow cytometry relative to control", "type": "functional"}, "[26]": {"system": "A549", "assay": "Induction of apoptosis in human A549 cells assessed as necrotic cells at 20 uM after 72 hrs by Annexin V-FITC/propidium iodide staining based flow cytometry (reference value: 0.6%)", "type": "functional"}, "[27]": {"system": "A549", "assay": "Cell cycle arrest in human A549 cells assessed as accumulation at S-phase at 10 uM after 24 hrs by propidium iodide staining based flow cytometry (reference value: 34.1%)", "type": "functional"}, "[28]": {"system": "A549", "assay": "Anticlonogenic activity against human A549 cells assessed as colony formation at 5 uM after 72 hrs by crystal violet staining based microscopic method relative to control", "type": "functional"}, "[29]": {"system": "A549", "assay": "Cell cycle arrest in human A549 cells assessed as accumulation at G2/M-phase at 20 uM after 72 hrs by propidium iodide staining based flow cytometry (reference value: 6.7%)", "type": "functional"}, "[30]": {"system": "A549", "assay": "Cell cycle arrest in human A549 cells assessed as accumulation at G1-phase at 10 uM after 24 hrs by propidium iodide staining based flow cytometry (reference value: 59.4%)", "type": "functional"}, "[31]": {"system": "A549", "assay": "Induction of apoptosis in human A549 cells assessed as live cells at 20 uM after 72 hrs by Annexin V-FITC/propidium iodide staining based flow cytometry (reference value: 98.5%)", "type": "functional"}, "[32]": {"system": "DU-145", "assay": "Cytotoxicity against human DU145 cells assessed as reduction in cell viability after 72 hrs by MTT assay", "type": "functional, cell-based", "conditions": "DU-145, 72 h"}, "[33]": {"system": "A549", "assay": "Cell cycle arrest in human A549 cells assessed as accumulation at G1-phase at 20 uM after 72 hrs by propidium iodide staining based flow cytometry (reference value: 61.5%)", "type": "functional"}, "[34]": {"system": "A549", "assay": "Synergistic cell cycle arrest in human A549 cells assessed as accumulation at S-phase at 10 uM after 72 hrs in presence of 10 uM erlotinib by propidium iodide staining based flow cytometry (reference value: 16.8%)", "type": "functional"}, "[35]": {"system": "U2OS", "assay": "Cytotoxicity against human U2OS cells assessed as reduction in cell viability after 72 hrs by MTT assay", "type": "functional, cell-based"}, "[36]": {"system": "BEAS-2B", "assay": "Cytotoxicity against human BEAS2B cells assessed as reduction in cell viability after 72 hrs by MTT assay", "type": "cell-based"}, "[37]": {"system": "A549", "assay": "Synergistic cell cycle arrest in human A549 cells assessed as accumulation at G1-phase at 10 uM after 72 hrs in presence of 10 uM erlotinib by propidium iodide staining based flow cytometry (reference value: 76%)", "type": "functional"}, "[38]": {"system": "A549", "assay": "Induction of apoptosis in human A549 cells assessed as early apoptotic cells at 20 uM after 72 hrs by Annexin V-FITC/propidium iodide staining based flow cytometry (reference value: 0.4%)", "type": "functional"}, "[39]": {"system": "A549", "assay": "Induction of mitosis in human A549 cells at 10 uM after 24 hrs by DAPI staining based fluorescence microscopic method", "type": "functional, cell-based"}, "[40]": {"system": "HCT-116", "assay": "Cytotoxicity against human HCT116 cells assessed as reduction in cell viability after 72 hrs by MTT assay", "type": "functional, cell-based", "conditions": "HCT-116, 72 h"}, "[41]": {"system": "A549", "assay": "Effect on cleaved caspase-3 protein expression in human A549 cells at 20 uM after 72 hrs by densitometric analysis", "type": "functional, cell-based"}, "[42]": {"system": "A549", "assay": "Synergistic cell cycle arrest in human A549 cells assessed as accumulation at G2/M-phase at 10 uM after 72 hrs in presence of 10 uM erlotinib by propidium iodide staining based flow cytometry (reference value: 7.2%)", "type": "functional"}, "[43]": {"system": "A549", "assay": "Effect on Bcl-x protein expression in human A549 cells at 20 uM after 72 hrs by densitometric analysis", "type": "functional, cell-based"}, "[44]": {"system": "A549", "assay": "Cell cycle arrest in human A549 cells assessed as accumulation at G2/M-phase at 10 uM after 72 hrs by propidium iodide staining based flow cytometry (reference value: 6.3 to 7.2%)", "type": "functional"}, "[45]": {"system": "HT-29", "assay": "Cytotoxicity against human HT-29 cells assessed as reduction in cell viability after 72 hrs by MTT assay", "type": "functional, cell-based", "conditions": "HT-29, 72 h"}}, "note": "Calls of active or inactive are those of the source. The rule behind the calls is not given here.", "data": [{"smiles": "CC(C)OC1OC(=O)C(Cl)=C1Cl", "note": "(stereo not given)", "values": [{"measurement": "Activity", "setting": "[1]", "value": 25.7, "unit": "%"}, {"measurement": "Activity", "setting": "[2]", "value": "inactive"}, {"measurement": "Activity", "setting": "[3]", "value": 15, "unit": "%"}, {"measurement": "Activity", "setting": "[4]", "value": 89, "unit": "%"}, {"measurement": "IC50", "setting": "[5]", "value": 16.8, "unit": "µM"}, {"measurement": "Activity", "setting": "[6]", "value": "inactive"}, {"measurement": "Activity", "setting": "[7]", "value": "Active"}, {"measurement": "Activity", "setting": "[8]", "value": "inactive"}, {"measurement": "Activity", "setting": "[9]", "value": "inactive"}, {"measurement": "Activity", "setting": "[10]", "value": "inactive"}, {"measurement": "Activity", "setting": "[11]", "value": 23.4, "unit": "%"}, {"measurement": "IC50", "setting": "[12]", "value": 4.8, "unit": "µM"}, {"measurement": "Activity", "setting": "[13]", "value": 47.3, "unit": "%"}, {"measurement": "IC50", "setting": "[14]", "value": 19.8, "unit": "µM"}, {"measurement": "log(RatioIC50)", "setting": "[15]", "value": 0.61}, {"measurement": "Activity", "setting": "[16]", "value": "19.3 - 26.2%"}, {"measurement": "Activity", "setting": "[17]", "value": 86, "unit": "%"}, {"measurement": "IC50", "setting": "[18]", "value": 6.8, "unit": "µM"}, {"measurement": "Activity", "setting": "[19]", "value": "inactive"}, {"measurement": "IC50", "setting": "[20]", "value": 6.7, "unit": "µM"}, {"measurement": "IC50", "setting": "[21]", "value": 7.7, "unit": "µM"}, {"measurement": "Activity", "setting": "[22]", "value": "59.9 - 68.2%"}, {"measurement": "IC50", "setting": "[23]", "value": 2.8, "unit": "µM"}, {"measurement": "IC50", "setting": "[24]", "value": 12.4, "unit": "µM"}, {"measurement": "fold change (FC)", "setting": "[25]", "value": 36}, {"measurement": "Activity", "setting": "[26]", "value": 3.9, "unit": "%"}, {"measurement": "Activity", "setting": "[27]", "value": 36.6, "unit": "%"}, {"measurement": "Activity", "setting": "[28]", "value": 40, "unit": "%"}, {"measurement": "Activity", "setting": "[29]", "value": 4.7, "unit": "%"}, {"measurement": "Activity", "setting": "[30]", "value": 40, "unit": "%"}, {"measurement": "Activity", "setting": "[31]", "value": 63.9, "unit": "%"}, {"measurement": "IC50", "setting": "[32]", "value": 25.4, "unit": "µM"}, {"measurement": "Activity", "setting": "[33]", "value": 48, "unit": "%"}, {"measurement": "Activity", "setting": "[34]", "value": 31.9, "unit": "%"}, {"measurement": "IC50", "setting": "[35]", "value": 21.1, "unit": "µM"}, {"measurement": "IC50", "setting": "[36]", "value": 27.5, "unit": "µM"}, {"measurement": "Activity", "setting": "[37]", "value": 51.4, "unit": "%"}, {"measurement": "Activity", "setting": "[38]", "value": 6.5, "unit": "%"}, {"measurement": "Activity", "setting": "[39]", "value": "inactive"}, {"measurement": "IC50", "setting": "[40]", "value": 7.2, "unit": "µM"}, {"measurement": "Activity", "setting": "[41]", "value": "inactive"}, {"measurement": "Activity", "setting": "[42]", "value": 16.6, "unit": "%"}, {"measurement": "Activity", "setting": "[43]", "value": "inactive"}, {"measurement": "Activity", "setting": "[44]", "value": "12.5 - 13.9%"}, {"measurement": "IC50", "setting": "[45]", "value": 7.2, "unit": "µM"}]}]}
